The values that follow come from US20130109720A1, “INDOLE INHIBITORS OF CRAC” (Hoffmann-La Roche Inc., priority 2011, published 2013).

pIC50: −log10 of the molar value.

For the assay, the system named is IL-2 production in Jurkat cell. As to the kind of experiment: Jurkat IL-2 Production Assay. The assay is classed as cell-based. The note with it: Homo sapiens, Jurkat cell (ATCC), PHA stimulation with 1% FBS or PMA/Ionomycin with 30% FBS (which one not stated), 18-20 h incubation. How it is done:
Cell: Jurkat cell (ATCC) was grown in RPMI 1640 with 10% FBS and 1% penicillin/streptomycin. The cell density was kept at 1.2˜1.8×10^6/mL in culture flask before seeding into culture plate, and the cell density in the plate was 0.5×10^6/200 μL/well.
Culture media: RPMI 1640 with 1% FBS or 30% FBS for high serum assay.
Test compound: serial dilution was done in 100% DMSO, and intermediate dilution was done with RPMI 1640 medium with 1% FBS. The DMSO final concentration in culture well was 0.25%.
Stimulant: PHA (Sigma#L9017-10MG) was used for the assay with 1% FBS in culture medium, and added after 10 minutes exposure of cell to compound/DMSO. The […] final concentration in culture well was 5 μg/mL. PMA (Sigma# P-8139 5MG)/Ionomycin (Sigma# I0634-5MG) was used for the assay with 30% FBS in culture medium, and added at same time point as the 1% FBS culture assay. The final concentration of PMA was 50 ng/mL, and Ionomycin final concentration was 500 ng/mL.
Incubation: at 37° C. with 5% CO2 and 95% humidity for 18 h ˜20 h.
IC50: IC50 was calculated with the data analysis software XLfit4, General Pharmacology model 251.

As for `Cc1cc(S(C)(=O)=O)ncc1-c1ccc2[nH]c(-c3cncc(F)c3C)cc2c1` [Example 1, 2-(5-fluoro-4-methyl-pyridin-3-yl)-5-(6-methanesulfonyl-4-methyl-pyridin-3-yl)-1H-indole], the pIC50 (in general, the negative decadic logarithm of the IC50, by convention in mol/L) was 7.54.
